For 18 compounds, GI50 and TGI results are on record in PubChem BioAssay (NCI).

Some test systems named below: KM12 colon; T-47D breast; HOP-92 NSCLC; ACHN renal; IGROV1 ovarian; HCC-2998 colon; MCF7 breast; PC-3 prostate; RPMI-8226 leukemia; CAKI-1 renal.
Common to all, as to test: NCI-60 cell line screen, 48 h

Values joined by “and” are separate entries in the source; they are usually repeats but may differ in a detail not shown here. Equal values may be shown once.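 Results reflect a 48-hour exposure of cells in 96-well plates to compound at five concentrations. GI50 marks 50% less growth. Definition used: TGI = concentration required for complete inhibition of growth.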

Turning to `CC(C)CCN(CCC(C)C)CC(=O)Nc1ccc(S(=O)(=O)c2ccc(NC(=O)CN(CCC(C)C)CCC(C)C)cc2)cc1`, the GI50 with KM12 colon is 1.62 µM; in the assay with T-47D breast it was 1.4 µM; in the assay with HOP-92 NSCLC, 1.68 µM; with ACHN renal, 1.94 µM; with IGROV1 ovarian it was 1.64 µM; in the assay with HCC-2998 colon, 3.2 µM. For the same compound, the GI50 in the assay with MCF7 breast was 1.31 µM; in the assay with PC-3 prostate, 2.01 µM. For the same compound, the TGI in the assay on KM12 colon turned out to be 3.25 µM; with T-47D breast it was 4.29 µM; in the assay on HOP-92 NSCLC, 3.64 µM; with ACHN renal, 4.68 µM; with IGROV1 ovarian, 4.5 µM; in the assay on HCC-2998 colon, 9.71 µM. The TGI is 11 µM in the assay with MCF7 breast and 5.89 µM in the assay on PC-3 prostate.

Regarding `C=C(CN(C)C)C(=O)c1ccccc1OC`, the TGI with KM12 colon is 63 µM; in the assay with T-47D breast, 38.5 µM; with RPMI-8226 leukemia it was above 62.7 µM; with CAKI-1 renal, 26.1 µM; in the assay with HOP-92 NSCLC it was 32.1 µM; in the assay with ACHN renal it was 28.2 µM. Besides, the figures for the TGI with IGROV1 ovarian, in the assay on HCC-2998 colon and with PC-3 prostate were 58.1 µM, 51.1 µM and 31.9 µM, respectively.

Consider `N#Cc1c(-c2ccc([N+](=O)[O-])cc2)c2c([nH]c1=O)-c1ccccc1CCC2`, for which the TGI in the assay with KM12 colon was above 100 µM; with T-47D breast, 70.5 µM; in the assay on RPMI-8226 leukemia, above 100 µM; in the assay with CAKI-1 renal, above 100 µM; in the assay on HOP-92 NSCLC it was 48.4 µM; in the assay on ACHN renal, above 100 µM. Further, the TGI was above 100 µM in the assay on IGROV1 ovarian, 71.1 µM in the assay on HCC-2998 colon, above 100 µM with MCF7 breast and above 100 µM in the assay with PC-3 prostate.

On to `O=C1OC(c2ccc(O)cc2)(c2ccc(O)cc2)c2ccc(Cl)c3cccc1c23` (tested in a mixture with another compound), for which the TGI in the assay with KM12 colon is 17.9 µM; with RPMI-8226 leukemia it was 28.4 µM; in the assay with CAKI-1 renal, 22 µM; in the assay on HOP-92 NSCLC, above 75 µM; in the assay with ACHN renal, 39.8 µM; in the assay with IGROV1 ovarian, 33.2 µM. The values for the TGI in the assay on MCF7 breast and in the assay with PC-3 prostate were above 75 µM and 20.6 µM, respectively.

Turning to `CC(=O)OC(C(=O)O)C(OC(C)=O)C(OC(C)=O)C(OC(C)=O)C(=O)O` (stereo not given), the TGI with KM12 colon, with RPMI-8226 leukemia, in the assay on CAKI-1 renal, in the assay on HOP-92 NSCLC, in the assay with IGROV1 ovarian and in the assay on MCF7 breast was above 100 µM throughout. In the assay with PC-3 prostate, this compound gave a TGI above 100 µM.

Take `Cc1csc2nc(-c3cccc([N+](=O)[O-])c3)c(/C=N/N=C(N)N)n12`: the TGI in the assay on KM12 colon was found to be 4.86 µM; in the assay on T-47D breast, 8.06 µM; in the assay on CAKI-1 renal, 8.71 µM; in the assay with HOP-92 NSCLC, 1.37 µM; with ACHN renal it was 3.63 µM; in the assay with IGROV1 ovarian, 3.19 µM. Also, the TGI amounted to 0.861 µM in the assay on HCC-2998 colon and 3.08 µM with PC-3 prostate.

Consider `O=C(O)c1cc2ccccc2c(N=Nc2ccc(S(=O)(=O)Nc3ccccn3)cc2)c1O`, for which the TGI in the assay on KM12 colon, with T-47D breast, in the assay on RPMI-8226 leukemia, in the assay on CAKI-1 renal, with HOP-92 NSCLC and in the assay with ACHN renal was above 100 µM in each case. For the same compound, the TGI in the assay on IGROV1 ovarian, with HCC-2998 colon, in the assay on MCF7 breast and in the assay with PC-3 prostate was above 100 µM in each case.

Consider `COc1ccccc1C#C/C=C\C#Cc1ccccc1C#N`, for which the TGI was 55.6 µM with KM12 colon; above 100 µM in the assay on T-47D breast; 61.5 µM with CAKI-1 renal; above 100 µM in the assay on HOP-92 NSCLC; above 100 µM with ACHN renal; 35.8 µM in the assay on IGROV1 ovarian. Further, the TGI in the assay with HCC-2998 colon is 47.4 µM; in the assay on MCF7 breast it was 28 µM; with PC-3 prostate, above 100 µM.

For the compound `COC(=O)c1c(O)ccc2c1c1c(n2CCc2ccc(OC)c(OC)c2)C(=O)c2ccccc2C1=O`, the TGI is 25.6 µM in the assay on KM12 colon; 31.9 µM in the assay with T-47D breast; 28 µM in the assay with RPMI-8226 leukemia; 38.3 µM in the assay on CAKI-1 renal; 43.6 µM in the assay on HOP-92 NSCLC; 35.9 µM with ACHN renal. In addition, the TGI was 29.9 µM in the assay on IGROV1 ovarian, 15.7 µM in the assay on HCC-2998 colon, 45.2 µM in the assay with MCF7 breast and 35.9 µM in the assay with PC-3 prostate.

Take `Cc1ncc(C(=O)Nc2ccc(CN3CCN(C)CC3)c(C(F)(F)F)c2)cc1C#Cc1cnc(N)c2ccc(C#N)cc12`: the GI50 in the assay on T-47D breast is 0.114 µM; in the assay with HOP-92 NSCLC it was 0.0165 µM; in the assay with HCC-2998 colon, 2.29 µM; with MCF7 breast, 2.04 µM. Moreover, the TGI is above 100 µM with T-47D breast; 0.0783 µM in the assay with HOP-92 NSCLC; 0.23 µM with IGROV1 ovarian; 24.7 µM in the assay on HCC-2998 colon; above 100 µM in the assay with MCF7 breast.

With `Brc1ccc(-c2[nH]c3ccccc3c2/C=N\Nc2ccc(-c3nc4ccccc4[nH]3)cc2)cc1`, the TGI was above 100 µM in the assay on KM12 colon; above 100 µM in the assay on T-47D breast; 25.4 µM with RPMI-8226 leukemia; above 100 µM with CAKI-1 renal; 17.3 µM in the assay with ACHN renal; above 88.3 µM in the assay with IGROV1 ovarian. For the same compound, the TGI with HCC-2998 colon is below 0.01 µM; in the assay with MCF7 breast, above 100 µM; in the assay with PC-3 prostate it was above 100 µM.

For `CC[C@@]1(O)CC(OC2CC(N3CCOCC3)C(O)C(C)O2)c2c(O)c3c(c(O)c2[C@H]1O)C(=O)c1cccc(O)c1C3=O` (stereo not given in full), the TGI with KM12 colon is 3.59 µM and 1.68 µM; with T-47D breast it was 3.35 µM; in the assay on RPMI-8226 leukemia, 2.15 µM and 5.08 µM; in the assay with CAKI-1 renal it was 0.318 µM and 0.243 µM; in the assay on HOP-92 NSCLC it was 0.383 µM and 0.871 µM; in the assay on ACHN renal it was 0.0815 µM. Moreover, the TGI with IGROV1 ovarian is 2.9 µM and 5.99 µM; in the assay with HCC-2998 colon, 0.904 µM and 0.916 µM; in the assay on MCF7 breast, 2.58 µM and 13.8 µM; in the assay with PC-3 prostate it was 0.811 µM. The GI50 is 0.0561 µM in the assay on RPMI-8226 leukemia; 0.0725 µM in the assay with HOP-92 NSCLC; 0.235 µM in the assay with IGROV1 ovarian; 0.13 µM in the assay on HCC-2998 colon; 0.0161 µM in the assay with MCF7 breast.

On to `O=S(=O)(c1ccccc1)C1CC(c2nc3ccccc3[nH]2)=NO1` (stereo not given), for which the TGI with T-47D breast, in the assay on RPMI-8226 leukemia, with CAKI-1 renal, in the assay on HOP-92 NSCLC, in the assay with ACHN renal and in the assay on IGROV1 ovarian was above 100 µM throughout. Also, the TGI with HCC-2998 colon, in the assay with MCF7 breast and in the assay with PC-3 prostate was above 100 µM each time.

For `Cc1[nH]c(C(=O)Nc2ccc(C(=O)NCCN)cc2OC(C)C)c(Cl)c1Cl`, the GI50 was 1.74 µM with KM12 colon; 1.92 µM in the assay with RPMI-8226 leukemia; 1.63 µM with CAKI-1 renal; 1.3 µM in the assay with HOP-92 NSCLC; 1.67 µM in the assay on ACHN renal; 1.82 µM in the assay on HCC-2998 colon. Moreover, the GI50 in the assay on PC-3 prostate is 1.82 µM. For the same compound, the TGI in the assay with KM12 colon amounted to 3.21 µM; with RPMI-8226 leukemia, 4.49 µM; with CAKI-1 renal, 3.04 µM; in the assay on HOP-92 NSCLC it was 2.87 µM; with ACHN renal it was 3.07 µM; with HCC-2998 colon, 3.48 µM. Besides, in the assay with PC-3 prostate, the TGI was found to be 3.53 µM.

On to `O=C(CSCC(=O)N/N=C\c1ccc(F)cc1F)N/N=C\c1ccc(F)cc1F`, for which the TGI in the assay with KM12 colon, in the assay on T-47D breast, with RPMI-8226 leukemia, in the assay with CAKI-1 renal, with HOP-92 NSCLC and in the assay on ACHN renal was above 100 µM throughout. Further, the TGI in the assay with IGROV1 ovarian, in the assay with HCC-2998 colon and in the assay with MCF7 breast was above 100 µM throughout.

For the compound `c1ccc(CSC(SCc2ccccc2)c2cccc3ccccc23)cc1`, the TGI with KM12 colon, in the assay with T-47D breast, in the assay with RPMI-8226 leukemia, with CAKI-1 renal, in the assay on ACHN renal and in the assay with IGROV1 ovarian was above 10 µM each time. In addition, the TGI in the assay on HCC-2998 colon, in the assay with MCF7 breast and in the assay with PC-3 prostate was above 10 µM throughout.

On to `C[n+]1c2ccccc2c(N=[N+]=[N-])c2ccccc21`, for which the TGI with KM12 colon, in the assay with T-47D breast, in the assay on RPMI-8226 leukemia, in the assay with CAKI-1 renal, in the assay on ACHN renal and with IGROV1 ovarian was above 10 µM throughout. The TGI with HCC-2998 colon, with MCF7 breast and with PC-3 prostate was above 10 µM throughout.

Consider `C[N+]1(C(CO)Cc2c[nH]c3ccccc23)Cc2ccccc2C1` (stereo not given), for which the TGI with KM12 colon, in the assay on T-47D breast, in the assay on RPMI-8226 leukemia, in the assay with CAKI-1 renal, in the assay on HOP-92 NSCLC and with ACHN renal was above 100 µM each time. For the same compound, the TGI in the assay on IGROV1 ovarian, in the assay with HCC-2998 colon, with MCF7 breast and in the assay on PC-3 prostate was above 100 µM each time.
